Measured values reported in the NIST ThermoML archive (doi:10.1021/je900237e).
Numbers after ± are expanded uncertainties.

Conditions: 101.33 kPa, Liquid; for speed of sound: Pulse-echo method; for mass density: Pycnometric method

Compound | speed of sound (298.15 K) | mass density (298.15 K) | speed of sound (308.15 K)
Cc1ccccc1 [toluene] | 1305 ± 5 m/s | 862.17 ± 5.4 kg/m3 | 
Cc1ccccc1C [1,2-dimethylbenzene] | 1344 ± 2 m/s | 875.9 ± 0.46 kg/m3 | 
Cc1ccc(C)cc1 [1,4-dimethylbenzene] | 1310 ± 2 m/s | 858.63 ± 0.45 kg/m3 | 
c1ccccc1 [benzene] | 1298 ± 5 m/s | 873.64 ± 5.5 kg/m3 | 
Cc1ccccc1N [2-methylaniline] |  | 994.28 ± 0.57 kg/m3 | 1603 ± 2.3 m/s
